# Experiments:
# [1] = tested on: Hepatitis B virus; assay: Antiviral activity against Hepatitis B virus infected in human HepG2(2.2.15) cells assessed as inhibition of viral replication incubated for 2 days followed by wash out measured after 10 days by RT-PCR analysis; type: functional, organism-based
# [2] = Cytotoxicity against human HepG2(2.2.15) cells infected with HBV DNA; type: cell-based
# [3] = Cytotoxicity against human HK2 cells by MTT assay; type: cell-based, HK-2
# [4] = Nephrotoxicity in human HK2 cells assessed as LDH release at 1 uM measured after 24 hrs; type: toxicity, cell-based; details: hk-2, 24 h
# [5] = Nephrotoxicity in human HK2 cells assessed as LDH release at 10 uM measured after 24 hrs; type: toxicity, cell-based; details: hk-2, 24 h
# [6] = Nephrotoxicity in human HK2 cells assessed as LDH release at 100 uM measured after 24 hrs; type: toxicity, cell-based; details: hk-2, 24 h
# [7] = Chemical stability of the compound assessed as drug decomposition at 1 mM in phosphate buffer at pH 2 after 24 hrs by HPLC analysis; type: physicochemical; details: read-out: Drug degradation
# [8] = Chemical stability of the compound assessed as drug decomposition at 1 mM in phosphate buffer at pH 7.4 after 24 hrs by HPLC analysis; type: physicochemical; details: read-out: Drug degradation
# [9] = Selectivity index, ratio of CC50 for HepG2(2.2.15) infected with HBV DNA to EC50 for Hepatitis B virus infected in human HepG2(2.2.15) cells
# [10] = Half life in rat plasma at 0.2 mg after 24 hrs by HPLC analysis; type: ADME
# [11] = tested on: Hepatitis B virus; assay: Ratio of adefovir dipivoxil to compound EC50 for Hepatitis B virus infected in human HepG2(2.2.15) cells assessed as inhibition of viral replication incubated for 2 days followed by wash out measured after 10 days by RT-PCR analysis; type: functional
# [12] = Ratio of adefovir dipivoxil SI to compound SI for ratio of CC50 for HepG2(2.2.15) infected with HBV DNA to EC50 for Hepatitis B virus infected in human HepG2(2.2.15) cells; type: functional
SMILES,EC50 [1] [µM],"degraded at 24 h, 1000 µM [7] [%]","degraded at 24 h, 1000 µM [8] [%]",half-life [10] [h],CC50 [2] [µM],CC50 [3] [µM],Activity [4] [%],Activity [5] [%],Activity [6] [%],Ratio CC50/EC50 [9],Ratio EC50 [11],Ratio [12]
CC(C(=O)OCCCOP(=O)(COCCn1cnc2c(N)ncnc21)OCCCSC(=O)[C@@H](N)C(C)C)c1cccc(C(=O)c2ccccc2)c1 (some centres not stated),26.9,,,,1050,,,,,39.01,,
CC[C@H](C)[C@H](N)C(=O)SCCCOP(=O)(COCCn1cnc2c(N)ncnc21)OCCCOC(=O)C(C)c1cccc(C(=O)c2ccccc2)c1 (some centres not stated),44.9,,,,1000,,,,,22.29,,
CC(C(=O)OCCCOP(=O)(COCCn1cnc2c(N)ncnc21)OCCCSC(=O)[C@@H](N)Cc1ccccc1)c1cccc(C(=O)c2ccccc2)c1 (some centres not stated),29.8,,,,1000,,,,,33.47,,
CC(C)Cc1ccc(C(C)C(=O)OCCCOP(=O)(COCCn2cnc3c(N)ncnc32)OCCCSC(=O)[C@@H](N)C(C)C)cc1 (some centres not stated),22.7,,,,122,,,,,5.37,,
CC[C@H](C)[C@H](N)C(=O)SCCCOP(=O)(COCCn1cnc2c(N)ncnc21)OCCCOC(=O)C(C)c1ccc(CC(C)C)cc1 (some centres not stated),50,,,,157,,,,,3.14,,
CC[C@H](C)[C@H](N)C(=O)SCCCOP(=O)(COCCn1cnc2c(N)ncnc21)OCCCOC(=O)C(C)c1ccc(-c2ccccc2)c(F)c1 (some centres not stated),36.7,,,,363,,,,,9.88,,
CC(C(=O)OCCCOP(=O)(COCCn1cnc2c(N)ncnc21)OCCCSC(=O)[C@@H](N)Cc1ccccc1)c1ccc(-c2ccccc2)c(F)c1 (some centres not stated),48.9,,,,202,,,,,4.12,,

# These reach a lower EC50 [1]. Values come first.
EC50 [1] [µM],"degraded at 24 h, 1000 µM [7] [%]","degraded at 24 h, 1000 µM [8] [%]",half-life [10] [h],SMILES,CC50 [2] [µM],CC50 [3] [µM],Activity [4] [%],Activity [5] [%],Activity [6] [%],Ratio CC50/EC50 [9],Ratio EC50 [11],Ratio [12]
12.5,12.7,9.1,0.75,CC[C@H](C)[C@H](N)C(=O)OCCOP(=O)(COCCn1cnc2c(N)ncnc21)OCCCOC(=O)C(C)c1ccc(CC(C)C)cc1 (some centres not stated),488,> 1000,36.25,36.67,40.6,39.11,,
8.8,9.6,7.8,1.5,CC(C)Cc1ccc(C(C)C(=O)OCCCOP(=O)(COCCn2cnc3c(N)ncnc32)OCCOC(=O)[C@@H](N)C(C)C)cc1 (some centres not stated),577,> 1000,35.41,36.25,36.87,65.56,,
3.34,14.7,10.3,2.05,CC(C(=O)OCCCOP(=O)(COCCn1cnc2c(N)ncnc21)OCCOC(=O)[C@@H](N)Cc1ccccc1)c1ccc(-c2ccccc2)c(F)c1 (some centres not stated),568,906,34.68,35.95,42.71,170.21,,
2.26,15.3,12.6,3.5,CC[C@H](C)[C@H](N)C(=O)OCCOP(=O)(COCCn1cnc2c(N)ncnc21)OCCCOC(=O)C(C)c1ccc(-c2ccccc2)c(F)c1 (some centres not stated),677,> 1000,35.89,36.95,40.52,299.69,,
0.96,42.5,39.1,0.52,CC(C)(C)C(=O)OCOP(=O)(COCCn1cnc2c(N)ncnc21)OCOC(=O)C(C)(C)C [ADEFOVIR DIPIVOXIL],471,488,42.32,47.49,50.02,490.73,,
0.73,14.9,12.5,,CC[C@H](C)[C@H](N)C(=O)OCCOP(=O)(COCCn1cnc2c(N)ncnc21)OCCCOC(=O)C(C)c1cccc(C(=O)c2ccccc2)c1 (some centres not stated),644,768,37.85,36.92,43.51,881.92,,
0.51,11.2,8.3,2.75,CC(C(=O)OCCCOP(=O)(COCCn1cnc2c(N)ncnc21)OCCOC(=O)[C@@H](N)C(C)C)c1cccc(C(=O)c2ccccc2)c1 (some centres not stated),866,840,37.63,38.72,44.9,1697.64,2,4

# Reference: ChEMBL document CHEMBL1944632, “Synthesis, anti-HBV activity and renal cell toxicity evaluation of mixed phosphonate prodrugs of adefovir” (Eur J Med Chem, 2012)
